Results from PubChem BioAssay (NCI).
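Values below derive from 48-hour exposures of cells grown in 96-well plates, with endpoints linearly interpolated between the two concentrations bracketing the appropriate inhibition level. GI50 is the concentration that inhibits growth by half. TGI denotes the concentration required for complete inhibition of growth.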

Experiments:
Assay in all cases: DTP human tumour cell line panel, 48 h
UO-31 renal = test system: UO-31 renal
HOP-62 NSCLC = test system: HOP-62 NSCLC
SK-OV-3 ovarian = test system: SK-OV-3 ovarian
DU-145 prostate = test system: DU-145 prostate
SF-268 CNS = test system: SF-268 CNS
LOX IMVI melanoma = test system: LOX IMVI melanoma
RPMI-8226 leukemia = test system: RPMI-8226 leukemia
SNB-19 CNS = test system: SNB-19 CNS
HS 578T breast = test system: HS 578T breast
MOLT-4 leukemia = test system: MOLT-4 leukemia
SK-MEL-2 melanoma = test system: SK-MEL-2 melanoma

| Compound | TGI (UO-31 renal) | GI50 (HOP-62 NSCLC) | TGI (HOP-62 NSCLC) | TGI (SK-OV-3 ovarian) | GI50 (DU-145 prostate) | TGI (DU-145 prostate) | GI50 (SF-268 CNS) | TGI (SF-268 CNS) | GI50 (LOX IMVI melanoma) | TGI (LOX IMVI melanoma) | TGI (RPMI-8226 leukemia) | GI50 (SNB-19 CNS) | TGI (SNB-19 CNS) | TGI (HS 578T breast) | TGI (MOLT-4 leukemia) | TGI (SK-MEL-2 melanoma) |
| --- | --- | --- | --- | --- | --- | --- | --- | --- | --- | --- | --- | --- | --- | --- | --- | --- |
| COc1cc(O)c2c(=O)c(OC)c(-c3ccc(OC)c(OC)c3)oc2c1 | > 100 µM | 58.5 µM | > 100 µM | > 100 µM | > 100 µM | > 100 µM | > 100 µM | > 100 µM | > 100 µM | > 100 µM | > 100 µM | > 100 µM | > 100 µM |  |  |  |
| COc1cccc(C2c3cc4c(cc3OC3COC(=O)C32)OCO4)c1OC (centres undefined) | > 100 µM |  | > 100 µM | > 100 µM |  | > 100 µM |  | > 100 µM |  | > 100 µM |  |  | > 100 µM | > 100 µM | > 100 µM | > 100 µM |
| COc1cc(Oc2nc3ccc(C(F)(F)F)cc3nc2-c2ccccc2)cc(OC)c1OC | > 100 µM |  | 44.4 µM | 33.4 µM |  | > 100 µM |  | 95.2 µM |  | > 100 µM | > 100 µM |  |  | > 100 µM |  |  |
| CO/N=C1/c2sccc2[C@H](NC(=O)C(Cc2ccccc2)NC(=O)OC(C)(C)C)[C@@H]1O (some centres undefined) | > 100 µM |  | > 100 µM | > 100 µM |  | > 100 µM |  | > 100 µM |  | > 100 µM |  |  | > 100 µM | > 100 µM | > 100 µM | > 100 µM |
| O=C1CCCC/C1=C\c1ccc(Cl)c(Cl)c1 | 34 µM |  | > 100 µM | > 100 µM |  |  |  | 59.4 µM |  | 34.7 µM |  |  | 74.3 µM |  | 43.8 µM |  |
| O=C(c1ccco1)N(C(=O)N1CCN(c2ccccc2)CC1)S(=O)(=O)c1ccccc1 | 53.6 µM |  | > 100 µM | > 100 µM |  | > 100 µM |  | > 100 µM |  |  |  |  | 85.2 µM | > 100 µM | 49.1 µM | 37.2 µM |
| CN1CCN(P2(=S)Oc3ccc4ccccc4c3-c3c(ccc4ccccc34)O2)CC1 | 48 µM |  | > 78.9 µM | > 100 µM |  |  |  | > 100 µM |  | 39.6 µM | 43.1 µM |  | > 100 µM |  | 46.2 µM | 42.4 µM |
| COC(=O)Cc1c(-c2c(CC(=O)OC)c3ccccc3n2C2OC(COC(C)=O)C(OC(C)=O)C(OC(C)=O)C2OC(C)=O)[nH]c2ccccc12 (centres undefined) | > 100 µM |  | > 100 µM | > 100 µM |  | > 100 µM |  | > 100 µM |  |  | > 100 µM |  | > 100 µM |  | > 100 µM | > 100 µM |
| CCCCCCCCCCCC[N+](CCCCCCCCCCCC)=C1SCCS1 | 26.2 µM |  | 30.5 µM | 30.1 µM |  |  |  | 21.5 µM |  | 4.52 µM | 4.4 µM |  |  |  | 16.6 µM | 23.2 µM |
| CCOC(=O)c1c[nH]c2ccc3c(c2c1=O)S(=O)(=O)CC3 (tested in a mixture with another compound) | > 100 µM |  | > 100 µM | > 100 µM |  |  |  | > 100 µM |  | > 100 µM | > 100 µM |  | > 100 µM |  | > 100 µM | > 100 µM |
| CC1(C)CC(=O)c2c(nc3c4c([nH]c(-c5ccc(Br)cc5)c24)CC(C)(C)C3)C1 | > 100 µM |  | > 100 µM | > 100 µM |  | > 100 µM |  | > 100 µM |  | > 100 µM |  |  | > 100 µM | > 100 µM | > 100 µM | > 100 µM |
| Cc1cc(NS(=O)(=O)c2ccc(NC(=O)c3cccc4c(Nc5ccc(S(N)(=O)=O)cc5)c5ccccc5nc34)cc2)no1 | > 100 µM |  | > 100 µM | > 100 µM |  |  |  | > 100 µM |  | > 100 µM | > 100 µM |  | > 100 µM |  | > 100 µM | > 100 µM |
| COc1cc(CNc2nc3ccccc3nc2C(=O)O)cc(OC)c1OC | > 100 µM |  | > 100 µM | > 100 µM |  | > 100 µM |  | > 100 µM |  | > 100 µM | > 100 µM |  |  | > 100 µM | > 100 µM |  |
| O=C1NC2CCCCCC2C12CCCCC2 (centres undefined) | > 100 µM |  | > 100 µM | > 100 µM |  |  |  | > 100 µM |  | > 100 µM |  |  | > 100 µM |  | > 100 µM |  |
| C=CCOc1ccc(C2C(C(=O)OC)C(=O)CC(O)(c3ccccc3)C2C(=O)OC)cc1OC (centres undefined) | 61.8 µM |  | > 100 µM |  |  | > 100 µM |  | 52.7 µM |  | > 100 µM |  |  | > 100 µM |  | > 100 µM | > 100 µM |
| CCN(CC)c1nnc(CCCCCCCCc2nnc(N(CC)CC)o2)o1 | > 100 µM |  | > 100 µM | > 100 µM |  | > 100 µM |  | > 100 µM |  | > 100 µM |  |  | > 100 µM |  | > 100 µM | > 100 µM |
